Results published in patent publication US9163021B2, “Pyrrolo[3,2-c]pyridine tropomyosin-related kinase inhibitors” (Pfizer Limited, priority 2012, dated 2015).

Each molecule was assayed against TRKA (Homo sapiens (Human), UniProt P04629) (assay: Isolated TRK enzyme assay (HTRF KinEASE-TK), PV3144 TrkA enzyme assay). Conditions: arithmetic mean where more than one reading.
Type: biochemical
Summary of the method: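 Kinase (recombinant His-TrkA cytoplasmic domain, ATP-preactivated 20 min) met compound 20 min, then biotinylated TK substrate (1 µM final) with Mg2+/DTT buffer; HTRF detection.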

Sequence of TRKA (P04629 441-796): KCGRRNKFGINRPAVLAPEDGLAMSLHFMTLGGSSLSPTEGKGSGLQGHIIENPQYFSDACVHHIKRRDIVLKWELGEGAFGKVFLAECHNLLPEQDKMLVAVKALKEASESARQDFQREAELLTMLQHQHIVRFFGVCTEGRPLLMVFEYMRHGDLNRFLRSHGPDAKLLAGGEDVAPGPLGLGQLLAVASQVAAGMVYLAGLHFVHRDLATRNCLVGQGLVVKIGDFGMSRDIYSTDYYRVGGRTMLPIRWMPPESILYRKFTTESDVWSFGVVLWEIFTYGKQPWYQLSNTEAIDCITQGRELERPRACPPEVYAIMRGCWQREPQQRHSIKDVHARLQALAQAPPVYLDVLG

SMILES	IC50
CC(C)c1cn(CC(=O)Nc2cncc(C(=O)c3cn(C(C)CO)c4ccncc34)c2)nn1 (single isomer, unassigned) [Example 62, N-(5-{[1-(1-hydroxypropan-2-yl)-1H-pyrrolo[3,2-c]pyridin-3-yl]carbonyl}pyridin-3-yl)-2-[4-(propan-2-yl)-1H-1,2,3-triazol-1-yl]acetamide]	54.3 nM
COc1ncc(C(=O)c2cn(C(C)C)c3ccncc23)cc1NC(=O)Cc1ccc(C#N)cc1 [Example 47, 2-(4-cyanophenyl)-N-(2-methoxy-5-{[1-(propan-2-yl)-1H-pyrrolo[3,2-c]pyridin-3-yl]carbonyl}pyridin-3-yl)acetamide]	187 nM
CC(C)n1cc(C(=O)c2cncc(NC(=O)Cn3ccc(C4CC4)n3)c2)c2cnccc21 [Example 26, 2-(3-cyclopropyl-1H-pyrazol-1-yl)-N-(5-{[1-(propan-2-yl)-1H-pyrrolo[3,2-c]pyridin-3-yl]carbonyl}pyridin-3-yl)acetamide]	108 nM
CC(C)n1cc(C(=O)c2cncc(NC(=O)Cc3ccc(F)cn3)c2)c2cncc(F)c21 [Example 88, N-(5-{[7-fluoro-1-(propan-2-yl)-1H-pyrrolo[3,2-c]pyridin-3-yl]carbonyl}pyridin-3-yl)-2-(5-fluoropyridin-2-yl)acetamide]	68.4 nM
CC(C)(CO)n1cc(C(=O)c2cncc(NC(=O)Cn3cc(C(F)(F)F)cn3)c2)c2cncc(F)c21 [Example 4, N-{5-[7-Fluoro-1-(2-hydroxy-1,1-dimethyl-ethyl)-1H-pyrrolo[3,2-c]pyridine-3-carbonyl]-pyridin-3-yl}-2-(4-trifluoromethyl-pyrazol-1-yl)-acetamide]	5.33 nM
Cc1cc(C(F)(F)F)nn1CC(=O)Nc1cncc(C(=O)c2cn(C(C)(C)CO)c3c(F)cncc23)c1 [Example 1, N-{5-[7-Fluoro-1-(2-hydroxy-1,1-dimethyl-ethyl)-1H-pyrrolo[3,2-c]pyridine-3-carbonyl]-pyridin-3-yl}-2-(5-methyl-3-trifluoromethyl-pyrazol-1-yl)-acetamide]	6.32 nM
CC(CO)n1cc(C(=O)c2cncc(NC(=O)Cc3ccc(C(F)(F)F)cc3)c2)c2cnccc21 (single isomer, unassigned) [Example 65, N-(5-{[1-(1-hydroxypropan-2-yl)-1H-pyrrolo[3,2-c]pyridin-3-yl]carbonyl}pyridin-3-yl)-2-[4-(trifluoromethyl)phenyl]acetamide]	37 nM
CC(C)n1cc(C(=O)c2ccnc(NC(=O)Cc3cccc(Cl)c3)c2)c2cnccc21 [Example 96, 2-(3-chlorophenyl)-N-(4-{[1-(propan-2-yl)-1H-pyrrolo[3,2-c]pyridin-3-yl]carbonyl}pyridin-2-yl)acetamide]	13.8 nM
CC(C)n1cc(C(=O)c2cncc(NC(=O)Cc3cccc(CC(C)(C)O)c3)c2)c2cnccc21 [Example 117, 2-(3-(2-hydroxy-2-methylpropyl)phenyl]-N-(5-{[1-(propan-2-yl)-1H-pyrrolo[3,2-c]pyridin-3-yl]carbonyl}pyridin-3-yl)acetamide]	39.2 nM
Cc1nonc1CC(=O)Nc1cncc(C(=O)c2cn(C(C)C)c3ccncc23)c1 [Example 40, 2-(4-methyl-1,2,5-oxadiazol-3-yl)-N-(5-{[1-(propan-2-yl)-1H-pyrrolo[3,2-c]pyridin-3-yl]carbonyl}pyridin-3-yl)acetamide]	1730 nM
Cc1oc(C2CC2)nc1CC(=O)Nc1cncc(C(=O)c2cn(C(C)C)c3ccncc23)c1 [Example 19, 2-(2-cyclopropyl-5-methyl-1,3-oxazol-4-yl)-N-(5-{[1-(propan-2-yl)-1H-pyrrolo[3,2-c]pyridin-3-yl]carbonyl}pyridin-3-yl)acetamide]	26.4 nM
COCc1nc(CC(=O)Nc2cc(C(=O)c3cn(C(C)C)c4ccncc34)ccn2)c(C2CC2)o1 [Example 80, 2-[5-cyclopropyl-2-(methoxymethyl)-1,3-oxazol-4-yl]-N-(4-{[1-(propan-2-yl)-1H-pyrrolo[3,2-c]pyridin-3-yl]carbonyl}pyridin-2-yl)acetamide]	357 nM
Cc1oc(C2CC2)nc1CC(=O)Nc1cc(C(=O)c2cn(C(C)C)c3ccncc23)ccn1 [Example 78, 2-(2-cyclopropyl-5-methyl-1,3-oxazol-4-yl)-N-(4-{[1-(propan-2-yl)-1H-pyrrolo[3,2-c]pyridin-3-yl]carbonyl}pyridin-2-yl)acetamide]	15.8 nM
CC(C)(CO)n1cc(C(=O)c2cncc(NC(=O)Cc3ccc(F)cn3)c2)c2cnccc21 [Example 16, 2-(5-fluoropyridin-2-yl)-N-(5-{[1-(1-hydroxy-2-methylpropan-2-yl)-1H-pyrrolo[3,2-c]pyridin-3-yl]carbonyl}pyridin-3-yl)acetamide]	18.2 nM
CC(CO)n1cc(C(=O)c2cncc(NC(=O)Cn3cc(C4CC4)nn3)c2)c2cnccc21 (single isomer, unassigned) [Example 76, 2-(4-cyclopropyl-1H-1,2,3-triazol-1-yl)-N-(5-{[1-(1-hydroxypropan-2-yl)-1H-pyrrolo[3,2-c]pyridin-3-yl]carbonyl}pyridin-3-yl)acetamide]	121 nM
CC(CO)n1cc(C(=O)c2cc(NC(=O)Cc3ccc(Cl)cn3)ccn2)c2cnccc21 (single isomer, unassigned) [Example 86, 2-(5-chloropyridin-2-yl)-N-(2-{[1-(1-hydroxypropan-2-yl)-1H-pyrrolo[3,2-c]pyridin-3-yl]carbonyl}pyridin-4-yl)acetamide]	93.2 nM

More lines, now with the values ahead:

IC50	SMILES
39.5 nM	Cc1cc(C(C)C)nn1CC(=O)Nc1cncc(C(=O)c2cn(C(C)C)c3ccncc23)c1 [Example 120, 2-(5-methyl-3-(propan-2-yl)-1H-pyrazol-1-yl]-N-(5-{[1-(propan-2-yl)-1H-pyrrolo[3,2-c]pyridin-3-yl]carbonyl}pyridin-3-yl)acetamide]
775 nM	CC(C)n1cc(C(=O)c2ccnc(NC(=O)Cn3nccn3)c2)c2cnccc21 [Example 190, N-(4-{[1-(propan-2-yl)-1H-pyrrolo[3,2-c]pyridin-3-yl]carbonyl}pyridin-2-yl)-2-(2H-1,2,3-triazol-2-yl)acetamide]
24 nM	CC(C)(CO)n1cc(C(=O)c2cncc(NC(=O)Cn3cc(C4CC4)nn3)c2)c2cncc(F)c21 [Example 240, 2-(4-cyclopropyl-1H-1,2,3-triazol-1-yl)-N-(5-{[7-fluoro-1-(1-hydroxy-2-methylpropan-2-yl)-1H-pyrrolo[3,2-c]pyridin-3-yl]carbonyl}pyridin-3-yl)acetamide]
22 nM	CC(C)n1ncc(CC(=O)Nc2cc(C(=O)c3cn(C(C)C)c4ccncc34)ccn2)c1C(F)(F)F [Example 178, N-(4-{[1-(propan-2-yl)-1H-pyrrolo[3,2-c]pyridin-3-yl]carbonyl}pyridin-2-yl)-2-[1-(propan-2-yl)-5-(trifluoromethyl)-1H-pyrazol-4-yl]acetamide]
14.3 nM	Cc1cc(C(F)(F)F)nn1CC(=O)Nc1cncc(C(=O)c2cn(C(C)C)c3ccncc23)c1 [Example 121, 2-(5-methyl-3-(trifluoromethyl)-1H-pyrazol-1-yl]-N(5-{[1-(propan-2-yl)-1H-pyrrolo[3,2-c]pyridin-3-yl]carbonyl}pyridin-3-yl)acetamide]
424 nM	O=C(Cc1ccc(F)cc1)Nc1cc(C(=O)c2cn(CCO)c3ccncc23)ccn1 [Example 148, 2-(4-fluorophenyl)-N-(4-{[1-(2-hydroxyethyl)-1H-pyrrolo[3,2-c]pyridin-3-yl]carbonyl}pyridin-2-yl)acetamide]
102 nM	Cc1cc(CC(=O)Nc2cc(C(=O)c3cn(C(C)C)c4ccncc34)ccn2)[nH]n1 [Example 177, 2(3-methyl-1H-pyrazol-5-yl)-N-(4-{[1-(propan-2-yl)-1H-pyrrolo[3,2-c]pyridin-3-yl]carbonyl}pyridin-2-yl)acetamide]
8.49 nM	CC(C)n1cc(C(=O)c2ccnc(NC(=O)Cc3ccc(C(F)(F)F)c(F)c3)c2)c2cnccc21 [Example 172, 2-(3-fluoro-4-(trifluoromethyl)phenyl]-N-(4-{[1-(propan-2-yl)-1H-pyrrolo[3,2-c]pyridin-3-yl]carbonyl}-pyridin-2-yl)acetamide]
13.6 nM	CC(C)n1cc(C(=O)c2ccnc(NC(=O)Cc3coc(C4CC4)n3)c2)c2cnccc21 [Example 189, 2-(2-cyclopropyl-1,3-oxazol-4-yl)-N-(4-{[1-(propan-2-yl)-1H-pyrrolo[3,2-c]pyridin-3-yl]carbonyl}pyridin-2-yl)acetamide]
9800 nM	O=C(Cn1nccn1)Nc1cc(C(=O)c2cn(CCO)c3ccncc23)ccn1 [Example 158, N-(4-{[1-(2-hydroxyethyl)-1H-pyrrolo[3,2-c]pyridin-3-yl]carbonyl}pyridin-2-yl)-2-(2H-1,2,3-triazol-2-yl)acetamide]
2600 nM	Cc1ccnn1CC(=O)Nc1cncc(C(=O)c2cn(C(C)C)c3ccncc23)c1 [Example 135, 2-(5-methyl-1H-pyrazol-1-yl)-N-(5-{[1-(propan-2-yl)-1H-pyrrolo[3,2-c]pyridin-3-yl]carbonyl}pyridin-3-yl)acetamide]
477 nM	CC(C)n1cc(C(=O)c2ccnc(NC(=O)Cn3cc(C(C)(C)O)nn3)c2)c2cnccc21 [Example 188]
17.7 nM	CC(C)n1cc(C(=O)c2ccnc(NC(=O)Cc3ccc(C#N)cc3)c2)c2cnccc21 [Example 183, 2-(4-cyanophenyl)-N-(4-{[1-(propan-2-yl)-1H-pyrrolo[3,2-c]pyridin-3-yl]carbonyl}pyridin-2-yl)acetamide]
83.6 nM	Cc1ccnn1CC(=O)Nc1cc(C(=O)c2cn(C(C)C)c3ccncc23)ccn1 [Example 169, 2-(5-methyl-1H-pyrazol-1-yl)-N-(4-{[1-(propan-2-yl)-1H-pyrrolo[3,2-c]pyridin-3-yl]carbonyl}pyridin-2-yl)acetamide]
203 nM	N#Cc1ccc(CC(=O)Nc2cc(C(=O)c3cn(C4COC4)c4ccncc34)ccn2)cc1 [Example 195, 2-(4-cyanophenyl)-N-(4-{[1-(oxetan-3-yl)-1H-pyrrolo[3,2-c]pyridin-3-yl]carbonyl}pyridin-2-yl)acetamide]
207 nM	CC(C)n1cc(C(=O)c2cc(NC(=O)Cc3ccc(C#N)cn3)ccn2)c2cnccc21 [Example 140, 2-(5-cyanopyridin-2-yl)-N-(2-{[1-(propan-2-yl)-1H-pyrrolo[3,2-c]pyridin-3-yl]carbonyl}pyridin-4-yl)acetamide]
